Usually melting point stands for the temperature of the solid-liquid transition.

Take `CS(=O)(=O)OCCCCC1C(=O)Nc2cc(F)ccc21` (stereo unspecified): the melting point is 106 to 108 °C. Then `COC(=S)c1ccncc1Cc1ccccc1`, with 79 to 80 °C.

`Cn1nc(-c2ccnc(N[C@H]3CC[C@H](O)CC3)n2)c2ccccc21`: the melting point was in the range of 180 to 183 °C. Then `O=C(Nc1cc(OCCCON=Cc2ccc(-c3ccccc3)cc2)ccc1C(=O)O)c1ccc(C(F)(F)F)cc1`, with 206 to 207 °C; and `O=C1c2cc(OCc3ccccc3)ccc2OCC1Oc1cccnc1` (stereo unspecified), with 133 to 134 °C. The molecule `C=CCn1c(=O)c(C(=O)OCC)c(N2CCCC2)c2ccc(C)nc21` showed a melting point of 97 to 103 °C. `Cc1nnc2ccc(-c3ccccc3Cl)nn12` showed a melting point of 146 to 148 °C. As for `Cc1cnc(N2CCNCC2)c2ccoc12`, the figure is 112 °C; as for `C=CCNc1c(CO)cnc2cn(C)nc12`, 151 to 159 °C. As for `Cn1ncnc1COCc1cccc(-n2cnc3cc(C(F)(F)F)ccc32)c1`, the figure is 121 to 124 °C; as for `Cc1ccc(NC(=O)c2ccc(CBr)c(C(F)(F)F)c2)cc1Br`, 153 to 154 °C. In the case of `CC1(C)OC[C@@H](CNc2c([N+](=O)[O-])cnc3cc(Br)ccc23)O1`, the melting point was in the range of 136 to 137 °C. Consider `COC1=C(OC)C(=O)C(CCCCC#CCCCCO)=C(C)C1=O`, for which the melting point is 52 to 53 °C. Then `COc1ccc(S(=O)(=O)c2ccc(OC)c3ccccc23)cc1`, with 160 to 162 °C; and `CCSCC(=O)Nc1c(C)cccc1C`, with 96 to 98 °C. Then `CCOC(=O)Cc1nc(-c2ccc(F)cc2)c(-c2ccc(S(C)(=O)=O)cc2)o1`, with 123 to 124 °C; and `CCCCCS(=O)(=O)NC(=O)CCc1cc(OC(C)C)nn1Cc1ccc(F)cc1F`, with 107 to 108 °C; and `CCOC(=O)CC(c1ccccc1)N(N)C(=O)c1cc(C(=O)OCc2ccccc2)ccc1OCCOC` (racemic), with 139 to 140 °C. `Cn1c(Cl)cnc1CN1C(=O)C2(COc3cc4c(cc32)OCCO4)c2ccccc21` (stereo unspecified) had a melting point of 91 to 95 °C. `Cc1nc2c3c(ccn2c1C)[C@@](C)(O)[C@H](O)[C@@H](c1ccccc1)N3` gave a melting point of 137 to 138 °C. With `O=C(NCCNCC(O)COc1ccccc1)c1cc(O)ccc1O` (stereo unspecified), the melting point fell in the range of 178 to 180 °C. In the case of `Cc1ccc(C(=O)Nc2ccc(CN(C)C)c(C(F)(F)F)c2)cc1Br`, the melting point lay in the range of 156 to 157 °C. As for `COc1cc(O)c2c(c1O)CC=CC2`, the figure is 142 to 144 °C; as for `c1cnc(N2CCN(Cc3nc4ccccc4[nH]3)CC2)nc1`, 198 to 200 °C; as for `CCCc1cccc(N(CC(=O)OC)NC(=O)NC)c1`, 76 to 77 °C. Then `CCCc1nc2c(N)nc3cc(Oc4ccccc4[N+](=O)[O-])ccc3c2n1CC(C)C`, with 207 to 208 °C. As for `O=C(C[C@@H](C(=O)OCc1ccccc1)n1c2ccccc2c2ccccc21)OCCOC(=O)c1ccc(NC(=O)OCc2ccccc2)cc1`, the figure is 58 °C; as for `OC(CCc1ccc2c(c1)OCO2)C1CC1` (stereo unspecified), 64 to 65 °C; as for `COc1ccccc1NCN1C(=O)CSC1=O`, 88.5 to 91 °C.

In the case of `COc1cccc(C(=C/C=C/C(=O)O)c2cccc(OC)c2)c1`, the melting point fell in the range of 179 to 180 °C. Then `C[C@H]1COc2c(N3C[C@@H]4CCOC[C@@]4(N)C3)c(F)cc3c(=O)c(C(=O)O)cn1c23`, with above 300 °C; and `COc1ccc2cc(S(=O)(=O)Cc3ccc(OC)c([N+](=O)[O-])c3)c(=O)oc2c1`, with 250 to 252 °C; and `Cc1cccc(CC(Nc2ccc3c(c2)C(=O)OC3)C(=O)NC(C#N)CCCCc2cccc(C(=O)O)c2)c1` (stereo unspecified), with 91 to 94 °C. As for `CCCCCCCCCCCCCOc1ccc(CO)cc1`, the figure is 72 to 75 °C; as for `CCOC(=O)c1c(C)nc2cc(C)ccn12`, 59 to 61 °C; as for `COC1C(OC(=O)NC(=O)CCl)CCC(O)(CSC)C1C1(C)OC1CC=C(C)C` (stereo unspecified), 101 to 102 °C.

(Values after a melting point compilation (Tetko et al.; mined from patent text by program, amines drawn as free bases though some values may be those of a salt).)
